Measurements: publication PMC9199881 (Clinical and Translational Science, 2022)

Assays:
[1] = tested on: healthy subjects; assay: Safety assessment; type: in vivo, human
[2] = cited from earlier work
[3] = Plasma pharmacokinetics, Part B; conditions: for AUC(0-inf): AUC0–∞
[4] = tested on: spontaneous canine pemphigus foliaceus; conditions: cited from earlier work
[5] = tested on: healthy subjects; assay: ECG by timepoint analysis and categorical outliers, Part B; type: in vivo, human
[6] = tested on: mouse immune thrombocytopenia model; conditions: cited from earlier work
[7] = Plasma pharmacokinetics, Part A; type: in vivo, human; conditions: for AUC(0-t) / AUC(0-inf) / Cmax / Tmax / half-life: human, plasma, oral; for AUC(0-t): AUC0–last; for AUC(0-inf): AUC0–∞
[8] = tested on: collagen-induced arthritis in rats; conditions: cited from earlier work
[9] = tested on: healthy subjects; assay: Concentration-QTc; type: in vivo, human
[10] = Part B, rilzabrutinib 400 mg + ritonavir 100 mg, first column of the group
[11] = Part B, rilzabrutinib 400 mg + ritonavir 100 mg, second column of the group
[12] = human, in vivo, 400 mg, Mean (SD), 400 mg single dose alone
[13] = human, in vivo, 400 mg, Median (range), 400 mg single dose alone
[14] = 1200 mg, Mean (SD), rilzabrutinib 1200 mg single dose
[15] = 1200 mg, Median (range), rilzabrutinib 1200 mg single dose
[16] = Mean (SD), rilzabrutinib 100 mg + ritonavir 100 mg b.i.d., rilzabrutinib in plasma
[17] = Median (range), rilzabrutinib 100 mg + ritonavir 100 mg b.i.d., rilzabrutinib in plasma
[18] = rilzabrutinib 100 mg + ritonavir 100 mg vs 100 mg alone
[19] = Part B, linear model with an intercept

CC(C)(/C=C(\C#N)C(=O)N1CCC[C@@H](n2nc(-c3ccc(Oc4ccccc4)cc3F)c3c(N)ncnc32)C1)N1CCN(C2COC2)CC1 [Rilzabrutinib, rilzabrutinib]
Treatment-related TEAE: Nervous system disorders, n (%) [1, 10]: 3 (8.8) n (%)
Treatment-related TEAE: Somnolence, n (%) [1, 10]: 2 (5.9) n (%)
Treatment-related TEAE: Vomiting, n (%) [1, 10]: 0 n (%)
Treatment-related TEAE: Abdominal pain, n (%) [second column of the group] [1, 11]: 0 n (%)
Treatment-related TEAE: Diarrhea, n (%) [second column of the group] [1, 11]: 12 n (%)
Treatment-related TEAE: Dizziness, n (%) [second column of the group] [1, 11]: 0 n (%)
Treatment-related TEAE: Dysgeusia, n (%) [second column of the group] [1, 11]: 2 n (%)
Treatment-related TEAE: Headache, n (%) [second column of the group] [1, 11]: 0 n (%)
Treatment-related TEAE: Herpex simplex, n (%) [second column of the group] [1, 11]: 1 n (%)
Treatment-related TEAE: Lethargy, n (%) [second column of the group] [1, 11]: 0 n (%)
Treatment-related TEAE: Nausea, n (%) [second column of the group] [1, 11]: 4 n (%)
Treatment-related TEAE: Somnolence, n (%) [second column of the group] [1, 11]: 2 n (%)
Treatment-related TEAE: Vomiting, n (%) [second column of the group] [1, 11]: 0 n (%)
changes in clinical chemistry ([1]; at the studied doses): No clinically meaningful changes
safety profile ([1]; at the studied doses): acceptable safety profile
accumulation after chronic multiple dosing ([2]; 400 mg b.i.d.): minimal accumulation
delay of absorption by a moderate fat meal ([2]; healthy volunteers): ~ 1 h
median time to maximum plasma concentration [Tmax] ([2]; single dose 50–1200 mg, healthy volunteers): 0.5 to 2.5 h
mean half-life (t 1/2) ([2]; single dose, healthy volunteers): 1.4 to 3.9 h
Tmax, Median (range) ([3]; 400 mg single dose alone): 2.1 (0.6–4.1) h
AUC(0-t) ([3]; human, in vivo, 400 mg, AUC0–last, Mean (SD), 400 mg single dose alone): 455 ng·h/mL
AUC(0-inf) [3, 12]: 454 ng·h/mL
AUC(0-inf) [3, 13]: 312 ng·h/mL
Cmax [3, 12]: 144 ng/mL
Cmax [3, 13]: 102 ng/mL
Tmax [3, 12]: 2.1 h
Tmax [3, 13]: ~2.1 h
half-life ([3]; human, in vivo, 400 mg, t 1/2, Mean (SD), 400 mg single dose alone): 3.9 h
half-life ([3]; human, in vivo, 400 mg, t 1/2, Median (range), 400 mg single dose alone): 3.1 h
increase in rilzabrutinib Cmax with ritonavir ([3]; rilzabrutinib 400 mg + ritonavir 100 mg BID vs 400 mg alone): 5 fold
anti-inflammatory effects [4]: rapid and significant anti‐inflammatory effects
effect on HR ([5]; Part B): no effect on HR
effect on cardiac conduction (PR and QRS intervals) ([5]; Part B, at the studied doses): no clinically relevant effect
treatment-emergent T-wave or U-wave morphology changes ([5]; Part B, following 400 mg rilzabrutinib): one subject with a flat T wave at two timepoints
effects on ECG parameters, including the QTc interval ([5]; therapeutic and supratherapeutic (with ritonavir) exposures): no clinically relevant effects
anti-inflammatory effects [6]: rapid and significant anti‐inflammatory effects
AUC(0-t) [7, 14]: 2470 ng·h/mL
AUC(0-t) [7, 15]: 551 ng·h/mL
AUC(0-inf) [7, 14]: 2470 ng·h/mL
AUC(0-inf) [7, 15]: 553 ng·h/mL
Cmax [7, 14]: 569 ng/mL
Cmax [7, 15]: 136 ng/mL
Tmax [7, 14]: 2.9 h
Tmax [7, 15]: ~3 h
half-life ([7]; 1200 mg, t 1/2, Mean (SD), rilzabrutinib 1200 mg single dose): 3.1 h
half-life ([7]; 1200 mg, t 1/2, Median (range), rilzabrutinib 1200 mg single dose): 3.2 h
AUC(0-t) [7, 16]: 1080 ng·h/mL
AUC(0-t) [7, 17]: 771 ng·h/mL
AUC(0-inf) [7, 16]: 1100 ng·h/mL
AUC(0-inf) [7, 17]: 778 ng·h/mL
Cmax [7, 16]: 223 ng/mL
Cmax [7, 17]: 157 ng/mL
Tmax [7, 16]: 2.3 h
Tmax [7, 17]: 2.5 h
half-life ([7]; t 1/2, Mean (SD), rilzabrutinib 100 mg + ritonavir 100 mg b.i.d., rilzabrutinib in plasma): 4 h
half-life ([7]; t 1/2, Median (range), rilzabrutinib 100 mg + ritonavir 100 mg b.i.d., rilzabrutinib in plasma): 4 h
increase in rilzabrutinib AUC0–∞ with ritonavir over rilzabrutinib alone [7, 18]: 17 fold
increase in rilzabrutinib Cmax with ritonavir over rilzabrutinib alone [7, 18]: 7 fold
Tmax, Median (range) ([7]; rilzabrutinib 100 mg single dose): 1.0 (0.5–2.0) h
Tmax, Median (range) ([7]; rilzabrutinib 1200 mg single dose): 3.0 (1.5–4.0) h
effect on disease [8]: dose‐dependent reduction and complete reversal of disease
concentration–QTc relationship (slope) ([9]; Part B): -0.01 ms/ng/mL
predicted ΔΔQTcF at the observed geometric mean Cmax ([9]; Part B, 400 mg alone): -3.4 ms
estimated population slope of the C-QTc relationship [9, 19]: 0.01 ms per ng/mL
intercept of the C-QTc relationship [9, 19]: -2.0 ms
predicted ΔΔQTcF at the observed geometric mean Cmax ([9]; Part B, rilzabrutinib 400 mg with ritonavir): -9.9 ms
predicted ΔΔQTcF interval at Cmax ([9]; both therapeutic and supratherapeutic dose groups): < 0 ms
predicted upper bound 90% CI of QTc effect ([9]; therapeutic and supratherapeutic concentrations): < 10 ms
